The results in this text go back to patent US7217730B2, “Method for the use of pyranoindole derivatives to treat infection with Hepatitis C virus” (Wyeth, priority 2002, dated 2007).

The assay addresses T1, NS5B from the BK strain (genotype 1b) (Hepatitis C virus genotype 1b, UniProt P26663).
T1 construct: NS5B from the BK strain (genotype 1b) is expressed in E. coli as a protein in which the 21 C-terminal amino acids are replaced; made in house; host or cells: E. coli
As to the kind of experiment: Hepatitis C polymerase inhibition, NS5B BK strain, 33P-GTP filter assay. Format: biochemical. Particulars: Table 1A; for inhibition at 20 µM / HCV pol % inh at 20 μM: 20 μM compound; for inhibition at 20 µM: read-out: HCV pol % inh at 20 μM; for IC50: NS5B BK strain, read-out: HCV pol BK IC50. Put shortly:
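E. coli-expressed NS5B (BK, genotype 1b) with the 21 C-terminal residues replaced by a linker-His6 tag was preincubated with compound for 15 min at room temperature. It then extended a hairpin-primed heteropolymeric RNA (~3 nM, ~760 nt product) with α-[33P]-GTP for 2 h at 22–25° C. The reaction was stopped with EDTA, and incorporated label was counted on filters.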

T1 sequence (P26663 2420-2989): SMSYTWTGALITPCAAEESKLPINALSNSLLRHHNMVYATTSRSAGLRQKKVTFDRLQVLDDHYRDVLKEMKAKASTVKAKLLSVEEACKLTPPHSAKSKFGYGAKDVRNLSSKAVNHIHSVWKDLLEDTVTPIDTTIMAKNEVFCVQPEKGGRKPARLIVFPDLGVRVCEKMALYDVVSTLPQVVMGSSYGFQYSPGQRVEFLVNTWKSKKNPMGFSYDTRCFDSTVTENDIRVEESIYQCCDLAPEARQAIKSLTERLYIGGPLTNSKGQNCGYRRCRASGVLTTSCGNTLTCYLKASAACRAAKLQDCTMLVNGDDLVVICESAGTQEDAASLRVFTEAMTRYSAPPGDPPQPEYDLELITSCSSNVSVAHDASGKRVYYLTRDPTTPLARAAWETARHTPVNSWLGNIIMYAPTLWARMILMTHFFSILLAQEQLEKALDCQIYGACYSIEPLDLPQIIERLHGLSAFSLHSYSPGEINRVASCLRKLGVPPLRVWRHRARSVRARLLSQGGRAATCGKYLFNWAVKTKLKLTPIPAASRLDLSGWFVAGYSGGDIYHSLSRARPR

`CCC1(CC(=O)O)OCCc2c1[nH]c1c(F)ccc(F)c21` (stereo not drawn) [Example 123, (1-ethyl-5,8-difluoro-1,3,4,9-tetrahydro-pyrano[3,4-b]indol-1-yl)acetic acid]: the inhibition at 20 µM worked out at 51% and the IC50 is more than 20 µM.
The corresponding values for `CCCC1(CC(=O)O)OCCc2c1[nH]c1cccc(-c3ccc(C)cc3)c21` (stereo not drawn) [Example 32, [5-(4-methylphenyl)-1-propyl-1,3,4,9-tetrahydropyrano[3,4-b]indol-1-yl]acetic acid] are less than 5% and more than 20 µM.
In the same order, the values of `CCCC1(CC(=O)O)OCCc2c1[nH]c1c(-c3cccc(N)c3)cccc21` (stereo not drawn) [Example 97, [8-(3-aminophenyl)-1-propyl-1,3,4,9-tetrahydropyrano[3,4-b]indol-1-yl]acetic acid] are 21% and more than 20 µM.
For the compound “(1-propyl-8-thien-2-yl-1,3,4,9-tetrahydropyrano[3,4-b]indol-1-yl)acetic acid [Example 95]”, the “HCV pol % inh at 20 μM” value worked out at 68% and the IC50 was 14.4 µM.
Consider `CCCC1(CC(=O)O)OCCc2c1[nH]c1c(C)ccc(F)c21` (stereo not drawn) [Example 141, (5-fluoro-8-methyl-1-propyl-1,3,4,9-tetrahydropyrano[3,4-b]indol-1-yl)acetic acid], for which the inhibition at 20 µM came to 79% and the IC50 is 1.4 µM.
The corresponding values for `O=C(O)CC1(c2ccccc2)OCCc2c1[nH]c1c(Cl)ccc(C(F)(F)F)c21` (stereo not drawn) [Example 135, [8-chloro-1-phenyl-5-(trifluoromethyl)-1,3,4,9-tetrahydropyrano[3,4-b]indol-1-yl]acetic acid] are 55% and more than 20 µM.
The corresponding values for `Cc1cc(F)c2[nH]c3c(c2c1C#N)CCOC3(C)CC(=O)O` (stereo not drawn) [Example 219, (5-cyano-8-fluoro-1,6-dimethyl-1,3,4,9-tetrahydropyrano[3,4-b]indol-1-yl)acetic acid] are 30% and more than 5 µM.
For the compound `C=CCn1c2c(c3c(Cl)ccc(Cl)c31)CCOC2(CCC)CC(=O)O` (stereo not drawn) [Example 233, (9-allyl-5,8-dichloro-1-propyl-1,3,4,9-tetrahydropyrano[3,4-b]indol-1-yl)acetic acid], the IC50 was more than 20 µM.
For the compound “(8-fluoro-5-iodo-6-methyl-1-propyl-1,3,4,9-tetrahydropyrano[3,4-b]indol-1-yl)acetic acid [Example 218]”, the “HCV pol % inh at 20 μM” value worked out at 92% and the IC50 came out at 0.29 µM.
As for `C/C=C/CCC1(CC(=O)O)OCCc2c1[nH]c1c(F)cc(C)c(C#N)c21` (stereo not drawn) [Example 223, {5-cyano-8-fluoro-6-methyl-1-[(3E)-pent-3-enyl]-1,3,4,9-tetrahydropyrano[3,4-b]indol-1-yl}acetic acid], the inhibition at 20 µM was 37% and the IC50 was more than 5 µM.
The corresponding values for `CCCC1(CC(=O)O)OCCc2c1[nH]c1c(C#N)cccc21` (stereo not drawn) [Example 98, (8-cyano-1-propyl-1,3,4,9-tetrahydropyrano[3,4-b]indol-1-yl)acetic acid] are 44% and more than 20 µM.
For the compound `CCCC1(CC(=O)O)OCCc2c1[nH]c1c(-c3ccccc3)cccc21` (stereo not drawn) [Example 89, (8-phenyl-1-propyl-1,3,4,9-tetrahydropyrano[3,4-b]indol-1-yl)acetic acid], the inhibition at 20 µM was found to be 36% and the IC50 was more than 20 µM.
Take `CCC[C@@]1(CC(=O)O)OCCc2c1[nH]c1c(C)cc(F)c(C#N)c21` [Example 12, [(S)-5-cyano-6-fluoro-8-methyl-1-propyl-1,3,4,9-tetrahydropyrano[3,4-b]indol-1-yl]acetic acid]: the IC50 amounted to 0.6 µM.
Turning to `CCCCC1(CC(=O)O)OCCc2c1[nH]c1c(C)ccc(F)c21` (stereo not drawn) [Example 144, (1-butyl-5-fluoro-8-methyl-1,3,4,9-tetrahydropyrano[3,4-b]indol-1-yl)acetic acid], the inhibition at 20 µM turned out to be 73% and the IC50 came to 6 µM.
In the same order, the values of `CC1(CC(=O)O)OCCc2c1[nH]c1c(Cl)cc(Cl)c(Cl)c21` (stereo not drawn) [Example 154, (5,6,8-trichloro-1-methyl-1,3,4,9-tetrahydropyrano[3,4-b]indol-1-yl)acetic acid] are 22% and 22.4 µM.
In the same order, the values of `CCCC1(CC(=O)O)OCCc2c1[nH]c1cccc(-c3ccc(OC)cc3)c21` (stereo not drawn) [Example 33, [5-(4-methoxyphenyl)-1-propyl-1,3,4,9-tetrahydropyrano[3,4-b]indol-1-yl]acetic acid] are less than 5% and more than 20 µM.
`CCC1(CC(=O)O)OCCc2c1[nH]c1c(Cl)cc(Cl)cc21` (stereo not drawn) [Example 100, (6,8-dichloro-1-ethyl-1,3,4,9-tetrahydropyrano[3,4-b]indol-1-yl)acetic acid]: the inhibition at 20 µM was 54% and the IC50 is more than 20 µM.
In the case of `O=C(O)CC1(c2ccccc2)OCCc2c1[nH]c1cccc(Br)c21` (stereo not drawn) [Example 26, (5-bromo-1-phenyl-1,3,4,9-tetrahydropyrano[3,4-b]indol-1-yl)acetic acid], the inhibition at 20 µM was less than 5% and the IC50 is more than 20 µM.
In the same order, the values of `O=C(O)CC1(c2ccccc2F)OCCc2c1[nH]c1cccc(Cl)c21` (stereo not drawn) [Example 20, [5-chloro-1-(2-fluorophenyl)-1,3,4,9-tetrahydropyrano[3,4-b]indol-1-yl]acetic acid] are 21% and more than 20 µM.
As for `CCCC1(CC(=O)O)OCCc2c1[nH]c1cccc(-c3ccc4ccccc4c3)c21` (stereo not drawn) [Example 38, [5-(2-naphthyl)-1-propyl-1,3,4,9-tetrahydropyrano[3,4-b]indol-1-yl]acetic acid], the inhibition at 20 µM is 11% and the IC50 was more than 20 µM.
In the case of `CCCC1(CC(=O)O)OCCc2c1[nH]c1c(F)ccc(I)c21` (stereo not drawn) [Example 215, (8-fluoro-5-iodo-1-propyl-1,3,4,9-tetrahydropyrano[3,4-b]indol-1-yl)acetic acid], the inhibition at 20 µM worked out at 86% and the IC50 came to 0.32 µM.
In the case of `CCCC1(CC(=O)O)OCCc2c1[nH]c1c(C)ccc(C(=O)N(C)C)c21` (stereo not drawn) [Example 227, (5-dimethylcarbamoyl-8-Methyl-1-propyl-1,3,4,9-tetrahydropyrano[3,4-b]indol-1-yl)acetic acid], the IC50 was more than 20 µM.
Turning to `CCCC1(CC(=O)O)OCCc2c1[nH]c1c(C)ccc(Br)c21` (stereo not drawn) [Example 153, (5-bromo-8-methyl-1-propyl-1,3,4,9-tetrahydropyrano[3,4-b]indol-1-yl)acetic acid], the inhibition at 20 µM stood at 93% and the half-inhibitory concentration (IC50) was 0.3 µM.
Consider `CC1(CC(=O)O)OCCc2c1[nH]c1c(C(F)(F)F)cccc21` (stereo not drawn) [Example 115, [1-methyl-8-(trifluoromethyl)-1,3,4,9-tetrahydropyrano[3,4-b]indol-1-yl]acetic acid], for which the inhibition at 20 µM is 40% and the IC50 was more than 20 µM.
As for `CC(C)C1(CC(=O)O)OCCc2c1[nH]c1cccc(Cl)c21` (stereo not drawn) [Example 15, (5-chloro-1-isopropyl-1,3,4,9-tetrahydropyrano[3,4-b]indol-1-yl)acetic acid], the inhibition at 20 µM was 7% and the IC50 was more than 20 µM.
On to `CC(C)C1(CC(=O)O)OCCc2c1[nH]c1c(Br)ccc(Br)c21` (stereo not drawn) [Example 212, (5,8-dibromo-1-isopropyl-1,3,4,9-tetrahydropyrano[3,4-b]indol-1-yl)acetic acid], for which the inhibition at 20 µM was 81% and the half-inhibitory concentration (IC50) is 0.4 µM.
In the same order, the values of `CCCC1(CC(=O)O)OCCc2c1[nH]c1c(C(F)(F)F)cccc21` (stereo not drawn) [Example 117, [1-propyl-8-(trifluoromethyl)-1,3,4,9-tetrahydropyrano[3,4-b]indol-1-yl]acetic acid] are 39% and 9.6 µM.
The corresponding values for `CCCCC1(CC(=O)O)OCCc2c1[nH]c1c(C)cc(F)c(C#N)c21` (stereo not drawn) [Example 208, (1-butyl-5-cyano-6-fluoro-8-methyl-1,3,4,9-tetrahydropyrano[3,4-b]indol-1-yl)acetic acid] are 88% and 0.23 µM.
The corresponding values for `CCCCC1(CC(=O)O)OCCc2c1[nH]c1c(F)cc(C)c(C#N)c21` (stereo not drawn) [Example 170, (1-butyl-5-cyano-8-fluoro-6-methyl-1,3,4,9-tetrahydropyrano[3,4-b]indol-1-yl)acetic acid] are 53% and 1 µM.
For the compound `CCCC1(CC(=O)O)OCCc2c1[nH]c1c(-c3ccc(Cl)cc3)cccc21` (stereo not drawn) [Example 92, [8-(4-chlorophenyl)-1-propyl-1,3,4,9-tetrahydropyrano[3,4-b]indol-1-yl]acetic acid], the inhibition at 20 µM amounted to 35% and the IC50 was more than 20 µM.
In the same order, the values of `O=C(O)CC1(c2ccoc2)OCCc2c1[nH]c1c(F)cc(F)c(Br)c21` (stereo not drawn) [Example 192, [5-bromo-6,8-difluoro-1-(3-furyl)-1,3,4,9-tetrahydropyrano[3,4-b]indol-1-yl]acetic acid] are 74% and more than 5 µM.
The corresponding values for `CCCC1(CC(=O)O)OCCc2c1[nH]c1c(F)cc(C)c(Br)c21` (stereo not drawn) [Example 165, (5-bromo-8-fluoro-6-methyl-1-propyl-1,3,4,9-tetrahydropyrano[3,4-b]indol-1-yl)acetic acid] are 89% and 0.6 µM.
The corresponding values for `N#Cc1cccc2[nH]c3c(c12)CCOC3(CC(=O)O)c1cccc([N+](=O)[O-])c1` (stereo not drawn) [Example 65, [5-cyano-1-(3-nitrophenyl)-1,3,4,9-tetrahydropyrano[3,4-b]indol-1-yl]acetic acid] are 27% and more than 20 µM.
